Values joined by “and” are separate entries in the source; they are usually repeats but may differ in a detail not shown here. Equal values may be shown once.
How the values were obtained:
[1] = system: A549 human lung carcinoma cells; experiment: Control for the activity of Photofrin® in the absence of irradiation (+D, −L), viability relative to cell control; format: cell-based
Description: The plate is covered with a black lid and placed in the incubator for four hours to allow absorption of the drug by the cells. The plate is then removed from the incubator, the drug is aspirated, the wells are washed with Dulbecco's phosphate buffered saline (DPBS) and fresh, pre-warmed medium is added to the wells. The columns of wells not to be irradiated are covered with foil strips, the black lid is exchanged for a clear lid, and the plate is then moved to the irradiation template beneath the light beam and irradiated for ten minutes, for a total of 3.3 joules. The plate is returned to the incubator and assessed for viability using XTT after 24 hours. The wells covered with foil strips are important controls for the activity of Photofrin® in the absence of irradiation and the effect of light on the cells in the absence of drug.
The optical absorbance of the wells in column 1 (high drug concentration, no cells) is evaluated for absorption at 450 nm to ensure that the drug is not interfering with the XTT assay. The percent viability of each of the wells in columns 2-9 and 11 is calculated relative to the mean value of column 10 (cell control, no drug, no light). For each dose response obtained, a four parameter logistic (4PL) nonlinear regression analysis is performed of the percent viability versus the log-Photofrin® concentration. The point of inflection of the regression curve (C value) is defined as the EC50 and used in the calculation of relative potency. Curve fitting and calculation of the EC50 is performed with Softmax v5.4.2 (Molecular Devices, Inc.) or Prism v.5.04 (GraphPad, Software Inc.) software. The mean percent viability of columns 9 and 11 is also calculated.
Critical aspects of the system suitability will include the acceptable performance of the assay controls. The expectation is that the viability of cells receiving no drug but with light (−D, +L) and cells receiving a high concentration of drug but no light (+D, −L) should approximate the viability of the cell control not receiving drug or light (CC). The percent viability of all samples is based on the CC, which is calculated set at 1.00 and is not included in the Table.

[2] = system: A549 human lung carcinoma cells; experiment: Photofrin® dose response of irradiated A549 cells with MTT as the endpoint; format: cell-based
Description: XTT and MTT are two types of formazan dyes that are used to measure mitochondrial function as a surrogate for cell viability. A Photofrin® dose response curve is performed with either XTT or MTT as the endpoint. The results obtained with these two endpoints differ by approximately 15%, but each produces consistent values (see Table 2, below). As the potency of an unknown will be determined with respect to a Reference Lot, the absolute EC50 value is not critical. Given that the use of the MTT dye requires an additional solubilization step, XTT is selected for use in this assay.

[3] = system: A549 cells; experiment: Homogeneity of irradiation: every well of an A549 plate treated equally with Photofrin®; format: cell-based, human; conditions: Photofrin® at 1.5 μg/mL; wells in the middle of the plate; relative to a second plate of cells without drug; before lengthening the light path from 54 cm to 95.5 cm
Excerpt: The Xenon arc lamp produces a bright, broad wavelength irradiance beam that when collimated still retains a bright center. This lack of homogeneity in the intensity of the light beam has to be minimized in order to achieve even irradiation over the area of the 96-well plate. For this purpose, two plano-convex lenses are introduced into the light path to approximate a Kohler illumination (FIG. 1). After an initial dosing ranging study of Photofrin® (data not shown), each well of an assay plate containing A549 cells is treated equally with Photofrin® at 1.5 μg/mL to assess homogeneity of the irradiation. For this experiment, the percent viability is calculated relative to a second plate of cells without drug. […] To address the inhomogeneity in irradiance, the distance from the final bandpass filter to the sample is raised approximately 2-fold from 54 cm to 95.5 cm while the first surface of the plano-convex lenses is maintained at 13.6 cm from the 650 nm cut-off filter. By increasing the length of the light path, the center zone of irradiance is broadened to cover the area of the entire plate (FIG. 13). As the light path is lengthened, the overall irradiance is decreased, necessitating the use of a higher Photofrin® concentration.

Q: For porfimer sodium [Photofrin®], which “+D, −L/CC” value ([1]; 70 μg/mL drug, no irradiation, ratio to cell control (no drug, no irradiation), Plate 1 (left to right dilution; controls in columns 9-11)) is on record?
A: 0.994

Q: What about the “+D, −L/CC” value ([1]; 70 μg/mL drug, no irradiation, ratio to cell control, Plate 2 (placement Test, Standard; controls in columns 9-11)) of the same substance?
A: 0.926

Q: What about the “+D, −L/CC” value ([1]; 70 μg/mL drug, no irradiation, ratio to cell control, Plate 3 (right to left dilution; controls in columns 9-11)) of the same substance?
A: 0.981

Q: What about the “+D, −L/CC” value ([1]; 70 μg/mL drug, no irradiation, ratio to cell control, Plate 4 (left to right dilution; controls in columns 9-11)) of the same substance?
A: 0.928

Q: And the “+D, −L/CC” value ([1]; 70 μg/mL drug, no irradiation, ratio to cell control, Plate 5 (left to right dilution; controls in columns 2-4))?
A: 1.00

Q: And the “+D, −L/CC, Mean” value ([1]; 70 μg/mL drug, no irradiation, ratio to cell control, mean across Plates 1-5 of positional analysis)?
A: 0.967

Q: What about the “+D, −L” value ([1]; high concentration of drug, no light, viability based on cell control set at 1.00, experiments of Table 1, black plates) of the same substance?
A: 1.05 and 0.893 and 1.09

Q: And the “+D, −L” value ([1]; high concentration of drug, no light, viability based on cell control set at 1.00, experiments of Table 1, clear plates (significant cell killing, excluded from the analysis))?
A: 0.012 and 0.019 and 0.024

Q: And the “+D, −L” value ([1]; high concentration of drug, no light, viability based on cell control set at 1.00, experiments of Table 2, black plates)?
A: 1.06 and 0.947 and 0.986

Q: What about the “+D, −L” value ([1]; high concentration of drug, no light, viability based on cell control set at 1.00, experiments of Table 4, black plates) of the same substance?
A: 0.994 and 0.926 and 0.981 and 0.928 and 1.00

Q: And the “+D, −L” value ([1]; high concentration of drug, no light, viability based on cell control set at 1.00, experiments of Table 5, black plates)?
A: 0.999 and 1.02 and 1.00 and 1.29 and 0.973

Q: And the “+D, −L” value ([1]; high concentration of drug, no light, viability based on cell control set at 1.00, experiments of Table 6, black plates)?
A: 0.990 and 0.981 and 0.977

Q: And the “+D, −L” value ([1]; high concentration of drug, no light, viability based on cell control set at 1.00, experiments of Table 7, black plates)?
A: 0.973 and 1.00

Q: And the “+D, −L” value ([1]; high concentration of drug, no light, viability based on cell control set at 1.00, experiments of Table 8, black plates)?
A: 1.02 and 0.992 and 0.995 and 0.959 and 0.985

Q: And the “+D, −L” value ([1]; high concentration of drug, no light, viability based on cell control set at 1.00, experiments of Table 9, black plates)?
A: 1.01 and 0.898 and 0.959

Q: What about the “+D, −L” value ([1]; high concentration of drug, no light, viability based on cell control set at 1.00, experiments of Table 10, black plates) of the same substance?
A: 1.09 and 1.08 and 0.995

Q: And the “+D, −L” value ([1]; high concentration of drug, no light, viability based on cell control set at 1.00, experiments of Table 11, black plates)?
A: 0.980 and 0.973 and 1.02 and 0.956

Q: What about the “+D, −L” value ([1]; high concentration of drug, no light, viability based on cell control set at 1.00, experiments of Table 12, black plates) of the same substance?
A: 0.990 and 0.906 and 1.03 and 1.02 and 1.00

Q: What about the “+D, −L, Mean” value ([1]; high concentration of drug, no light, viability based on cell control set at 1.00, mean of all experiments, clear plate values excluded) of the same substance?
A: 1.00

Q: What about the EC50-MTT ([2]; experiment PIN-009, in µg/mL) of the same substance?
A: 8.28 and 8.11

Q: What about the EC50-MTT, Mean ([2]; experiment PIN-009, mean) of the same substance?
A: 8.2 µg/mL

Q: And the viability [3]?
A: 103%

From patent US11726079B2, “Lighting systems and methods of using lighting systems for in vitro potency assay for Photofrin” (Concordia Laboratories, Inc., priority 2012, dated 2023)
